Type in all cases: cell-based, rat
One experiment deals with NSCs. The experiment is described as follows: Real-time RT-PCR mRNA expression in IM-treated NSCs. Here is the method: For real-time RT-PCR, the total RNA was extracted using the RNAeasy kit (Qiagen, Valencia, Calif., USA). Briefly, total RNA (1 μg) of each sample was reverse transcribed in 20 μL using 0.5 μg of oligo dT and 200 U Superscript II RT (Invitrogen, Carlsbad, Calif., USA). The amplification was carried out in a total volume of 20 μl containing 0.5 μM of each primer, 4 mM MgCl2, 2 μl LightCycler™ FastStart DNA Master SYBR green I (Roche Molecular Systems, Alameda, Calif., USA) and 2 μl of 1:10 diluted cDNA. The quantification in the unknown samples was performed with LightCycler Relative Quantification Software version 3.3 (Roche Molecular Systems, Alameda, Calif., USA). In each experiment, the GAPDH housekeeping gene was amplified as a reference standard. GAPDH primers were designed: GAPDH(f): […] (nt 414-434, GenBank accession no. BC059110.1), GAPDH(r): ATGACCTTGCCCACA GCCTT (nt 713-733). Other target gene primers were as follows: BDNF(f) 5′-CCAAGGCAGGTTCAA GAG-3′. BDNF(r): 5′-CCAGCAGAAAGAGAAGAGG-3′ (nt 146-331, GenBank accession no.NM_170735). Bcl-2(f): […] (nt 527-550, GenBank accession no. NM_016993.1), Bcl-2(r): GTTGTCCA CCAGGGGTGACAT (nt 721-742). Bax(f): GTGGT TGCCCTCTTCTACTTTGC (nt 328-351, GenBank accession no. NM_017059.1), Bax(r): GAGGACT CCAGCCACAAAGATG (nt 522-544). MAP2(f): GTTTACATTGTTCAGGAC CTCATGG (nt 316-341); MAP2(r): TCGGTAAGAAAGCC AGTGTGGT (nt 551-573. GenBank accession no. NM_U12008.1). Reactions were prepared in duplicate and heated to 95° C. for 10 minutes followed by 40 cycles of denaturation at 95° C. for 10 seconds, annealing at 55° C. for 5 seconds, and extension at 72° C. for 20 seconds. All PCR reactions were performed in duplicate. Standard curves (cycle threshold values versus template concentration) were prepared for each target gene and for the endogenous reference (GAPDH) in each sample. To confirm the specificity of the PCR reaction, PCR products were electrophoresed on a 1.2% agarose gel.
(In general: Quantitative PCR measures a nucleic acid by following its amplification.)

The next experiment deals with LPS-treated NSCs. The experiment is described as follows: TUNEL assay of LPS-induced apoptosis in NSCs. The settings on record: IM treatment vs without IM. Here is the method: An avidin-biotin complex method was used for the immunohistochemical staining in the differentiated NSCs. Following washes with the 3% hydrogen peroxide, sodium azide and antigens were retrieved using a microwave. Each slide was then treated with antibodies for Bcl-2 (Upstate Biotechnology, Waltham, Mass., USA), Nestin (Chemicon, Temecula, Calif., USA), 4′, 6-diamidino-2-phenylindole (DAPI; Chemicon, Temecula, Calif., USA) and MAP2 (Chemicon, Temecula, Calif., USA). Immunoreactive signals were detected with a mixture of biotinylated rabbit anti-mouse IgG and Fluoresave (Calbiochem, La Jolla, Calif., USA) under confocal microscopy (Olympus, FV300). Each individual sample was analyzed in triplicate. Furthermore, apoptotic cells were identified by the TUNEL method (In Situ Cell Death Detection Kit, POD, Roche Boehringer Mannheim Corp., IN, USA) as described in Chiou et al., J. Immunol. 167, 4098-4103, 2001. Briefly, the cells with cover slips were washed with 1× phosphate buffered saline (PBS), fixed with 4% of paraformaldehyde for 10 minutes, permeabilized with 0.1% of triton X-100 for 5 mins, and incubated with the TUNEL reagent provided for 1 hour. […] The percentage of TUNEL-positive cells was measured by the average of 6 different areas as compared to the total cell number in the same section slide (under a×200 power field of a light microscope).

In experiment [1] the test system is NSCs isolated from the hippocampus of adult rats. The experiment is described as follows: MTT cell viability/survival of NSCs treated with IM. The settings on record: 3 μM IM; Day 3, Day 5 and Day 7 cultures; p<0.05.
Experimental: Adult Sprague-Dawley (SD) rats (8 weeks old, 250 g) were anesthetized with intraperitoneal phenobarbital (Sigma, USA), and the location of their brains was mapped. Then, the brain was surgically separated from the hippocampus region. In brief, tissues from the hippocampus of adult rats were dissociated and incubated in Hank's balanced salt solution (HBSS) containing collagenase (78 units/ml) and hyaluronidase (38 units/ml) for 10 minutes at 37° C. The tissues were then mechanically dissected and placed in a trypsin solution (1.33 mg/ml) at 37° C. for another 10 minutes. Dissociated cells were then centrifuged at 150 GG for 5 minutes. […] Viable cells were counted by trypan blue exclusion and plated as 5000 cells/200 μL per well in 96-well plates (Corning Inc, Acton, Mass., USA) with no substrate pretreatment. […] The amount of MTT fromazon product was determined using a microplate reader and the absorbance was measured at 560 nm (SpectraMax 250, Molecular Devices, Sunnyvale, Calif., USA). […] Each individual sample was analyzed in triplicate.
[2] abbreviates: Day 3, Day 5 and Day 7 of IM-treated NSCs.
Setting [3] is: Day 5 and Day 7 IM-treated vs non IM-treated NSCs, p<0.05.

On to `CN(C)CCCN1c2ccccc2CCc2ccccc21` [IM, imipramine], for which, in the experiment on NSCs (1, 3 and 5 μM IM, Day 7, vs Day 7 non-IM-treated NSCs), the “level of Bcl-2 mRNA” value is “significantly increased”. Besides, in the experiment with NSCs (setting [2]), the “expression of Bad” value is “not activated” and the “expression of Bax” value is reported as “not activated”. In addition, in the experiment on NSCs (setting [3]), the “mRNA level of Bcl-2” value is listed as “significantly increased” and the “mRNA level of MAP2” value is reported as “significantly increased”. Besides, in the experiment with LPS-treated NSCs, the “LPS-induced apoptosis in NSCs (TUNEL assay)” value was “protected against LPS-induced apoptosis”. For the same molecule, the “cell survival (MTT assay)” value in experiment [1] is recorded as “significantly increased”.
